This note sets out measurements from ChEMBL document CHEMBL1201862, “PubChem BioAssay data set” (2004).

Each structure is given as a SMILES string. The source made the active and inactive calls.

For orientation: EC50 means the midpoint of the concentration-response curve. The term AC50 denotes the midpoint of the concentration-response curve, whichever way the signal moves. Broadly, the Ki is a dissociation constant, usually derived from enzyme kinetics or from competition with a known ligand.

The target in assay [1] is T1, High affinity choline transporter 1 (Homo sapiens, UniProt Q9GZV3).
T1 sequence (Q9GZV3 whole entry): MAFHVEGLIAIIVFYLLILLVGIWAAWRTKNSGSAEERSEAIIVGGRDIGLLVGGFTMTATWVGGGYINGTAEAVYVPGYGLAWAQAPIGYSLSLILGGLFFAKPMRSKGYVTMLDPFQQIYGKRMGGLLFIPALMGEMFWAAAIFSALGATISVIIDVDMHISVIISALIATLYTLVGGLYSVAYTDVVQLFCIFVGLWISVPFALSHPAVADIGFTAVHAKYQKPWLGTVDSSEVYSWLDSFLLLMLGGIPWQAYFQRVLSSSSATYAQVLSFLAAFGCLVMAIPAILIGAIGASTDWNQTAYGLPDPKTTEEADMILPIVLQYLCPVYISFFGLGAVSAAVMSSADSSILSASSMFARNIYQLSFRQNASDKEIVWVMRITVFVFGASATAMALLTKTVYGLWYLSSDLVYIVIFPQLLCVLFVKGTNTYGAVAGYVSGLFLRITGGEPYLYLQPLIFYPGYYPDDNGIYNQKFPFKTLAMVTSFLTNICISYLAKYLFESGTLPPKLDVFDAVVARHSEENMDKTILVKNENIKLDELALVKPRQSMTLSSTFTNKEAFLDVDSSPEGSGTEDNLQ
Put plainly: human choline transporter potentiators, potency – cell-based, 10-point CRC, membrane potential dye, dose response (AID 602376). It is filed as functional.

Assay [2] can be described thus: cells. It is filed as functional.
Assay [3] deals with T2, Glycogen synthase kinase-3 alpha (Homo sapiens, UniProt P49840). As to the kind of experiment: Inhibition of Human GSK-3 alpha Activity Measured in Biochemical System Using Microfluidics - 2063-06_Inhibitor_Dose_DryPowder_Activity_Set2. [Related pubchem assays (depositor defined):AID2709].
T2 sequence (P49840 whole entry): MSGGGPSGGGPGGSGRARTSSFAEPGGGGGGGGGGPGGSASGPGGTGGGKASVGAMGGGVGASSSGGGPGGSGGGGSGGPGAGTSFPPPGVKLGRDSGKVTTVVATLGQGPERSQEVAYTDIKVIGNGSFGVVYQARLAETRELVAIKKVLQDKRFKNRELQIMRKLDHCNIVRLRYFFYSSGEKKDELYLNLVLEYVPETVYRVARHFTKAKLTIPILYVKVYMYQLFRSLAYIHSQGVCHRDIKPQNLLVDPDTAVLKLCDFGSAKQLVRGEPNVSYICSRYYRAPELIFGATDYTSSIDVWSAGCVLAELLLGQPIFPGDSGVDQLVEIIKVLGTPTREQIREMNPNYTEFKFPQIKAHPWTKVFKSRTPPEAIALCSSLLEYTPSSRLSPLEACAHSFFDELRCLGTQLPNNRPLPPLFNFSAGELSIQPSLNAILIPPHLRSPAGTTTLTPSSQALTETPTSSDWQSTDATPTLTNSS
For assay [4], the target named is Glycogen synthase kinase-3 beta (Homo sapiens, UniProt P49841). Put plainly: Inhibition of Human GSK-3 beta Activity Measured in Biochemical System Using Microfluidics - 2063-05_Inhibitor_Dose_DryPowder_Activity_Set2. [Related pubchem assays (depositor defined):AID2709].
Chain of Glycogen synthase kinase-3 beta (P49841 whole entry): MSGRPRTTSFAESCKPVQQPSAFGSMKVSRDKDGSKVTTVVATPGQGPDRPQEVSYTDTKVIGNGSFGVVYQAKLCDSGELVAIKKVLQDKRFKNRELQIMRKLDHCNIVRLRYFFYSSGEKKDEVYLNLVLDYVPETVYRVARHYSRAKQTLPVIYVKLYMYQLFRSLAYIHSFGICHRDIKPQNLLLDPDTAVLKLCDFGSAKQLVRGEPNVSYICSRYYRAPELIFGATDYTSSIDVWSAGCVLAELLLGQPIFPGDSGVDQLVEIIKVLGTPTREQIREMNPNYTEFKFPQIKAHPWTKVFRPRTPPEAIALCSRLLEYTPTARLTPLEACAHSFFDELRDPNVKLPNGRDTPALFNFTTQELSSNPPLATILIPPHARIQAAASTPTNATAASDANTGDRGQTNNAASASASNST
Assay [5] deals with T3, Low molecular weight phosphotyrosine protein phosphatase (Homo sapiens, UniProt P24666).
T3 sequence (P24666 whole entry): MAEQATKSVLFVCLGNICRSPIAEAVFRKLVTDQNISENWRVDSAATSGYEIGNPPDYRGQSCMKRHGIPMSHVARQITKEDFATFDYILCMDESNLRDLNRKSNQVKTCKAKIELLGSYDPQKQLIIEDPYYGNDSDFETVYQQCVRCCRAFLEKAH
It is filed as functional. Conditions: read-out: IC50_Mean.

Assay [6] concerns the target T3, Low molecular weight phosphotyrosine protein phosphatase. It is filed as functional. Particulars: read-out: IC50_Mean. This is another data set of the same source.
The target of assay [7] is Sphingosine 1-phosphate receptor 2 (Homo sapiens, UniProt O95136). Put plainly: Late-stage fluorescence-based dose-response cell-based counterscreen assay to identify agonists of the Sphingosine 1-Phosphate Receptor 3 (S1P3): Sphingosine 1-Phosphate Receptor 2 (S1P2) agonist assay. It is filed as functional. On the technique in general: A counterscreen serves to expose hits that act by an unwanted route or on another target.
Chain of Sphingosine 1-phosphate receptor 2 (O95136 whole entry): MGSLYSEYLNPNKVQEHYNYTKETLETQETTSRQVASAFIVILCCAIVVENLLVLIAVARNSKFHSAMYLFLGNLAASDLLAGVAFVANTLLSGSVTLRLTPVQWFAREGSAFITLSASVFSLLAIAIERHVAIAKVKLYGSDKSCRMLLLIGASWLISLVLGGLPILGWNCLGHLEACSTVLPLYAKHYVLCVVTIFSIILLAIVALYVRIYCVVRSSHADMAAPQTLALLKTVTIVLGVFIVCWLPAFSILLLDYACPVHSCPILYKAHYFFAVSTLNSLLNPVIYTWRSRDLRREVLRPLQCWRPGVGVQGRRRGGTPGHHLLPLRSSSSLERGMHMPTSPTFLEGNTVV

For assay [8], the target named is Sphingosine 1-phosphate receptor 4 (Homo sapiens, UniProt O95977). As to the kind of experiment: Late-stage fluorescence-based dose-response cell-based counterscreen assay to identify agonists of the Sphingosine 1-Phosphate Receptor 3 (S1P3): Sphingosine 1-Phosphate Receptor 4 (S1P4) agonist assay. It is filed as functional.
Assay [9] has as its target T4, DNA dC->dU-editing enzyme APOBEC-3G (Homo sapiens, UniProt Q9HC16). As to the kind of experiment: inhibition of APOBEC3G ssDNA deamination – biochemical, fluorescence, single-stranded DNA substrate, SAR follow-up (AID 602136). It is filed as functional. Particulars: read-out: IC50_Mean.
In assay [10] the target is T5, DNA dC->dU-editing enzyme APOBEC-3A (Homo sapiens, UniProt P31941). Put plainly: SAR analysis of small molecule inhibitors of APOBEC3A DNA Deaminase via a fluorescence-based single-stranded DNA deaminase assay. It is filed as functional. Conditions: read-out: IC50_Mean.
T5 sequence (P31941 whole entry): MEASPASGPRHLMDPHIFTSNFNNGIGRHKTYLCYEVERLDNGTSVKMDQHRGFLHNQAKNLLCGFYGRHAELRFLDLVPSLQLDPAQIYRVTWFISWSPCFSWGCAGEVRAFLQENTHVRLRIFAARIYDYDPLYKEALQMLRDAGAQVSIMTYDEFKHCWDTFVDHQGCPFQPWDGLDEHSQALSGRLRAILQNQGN
The target of assay [11] is Dual specificity protein kinase CLK2 (Homo sapiens, UniProt P49760). It is filed as functional.
Assay [12] deals with Serine/threonine-protein kinase D3 (Homo sapiens, UniProt O94806). It is filed as functional.
Assay [13] addresses Activin receptor type-1 (Homo sapiens, UniProt Q04771). As to the kind of experiment: Navigating the Kinome. Panel member name: ACVR1. It is filed as functional.
Assay [14] addresses Serine/threonine-protein kinase PAK 4 (Homo sapiens, UniProt O96013). It is filed as functional.
Assay [15] has as its target Fibroblast growth factor receptor 1 (Homo sapiens, UniProt P11362). It is filed as functional.
Assay [16] concerns the target Casein kinase I isoform alpha (Homo sapiens, UniProt P48729). It is filed as functional.
The target of assay [17] is Tyrosine-protein kinase JAK3 (Homo sapiens, UniProt P52333). It is filed as functional.
Assay [18] has as its target LIM domain kinase 1 (Homo sapiens, UniProt P53667). As to the kind of experiment: Navigating the Kinome. Panel member name: LIMK1. It is filed as functional.
Assay [19] concerns the target T2, Glycogen synthase kinase-3 alpha. It is filed as functional.
The target of assay [20] is G protein-coupled receptor kinase 5 (Homo sapiens, UniProt P34947). Put plainly: Navigating the Kinome. Panel member name: GPRK5. It is filed as functional.
Assay [21] addresses Dual specificity tyrosine-phosphorylation-regulated kinase 1B (Homo sapiens, UniProt Q9Y463). Put plainly: Navigating the Kinome. Panel member name: DYRK1B. It is filed as functional.
For assay [22], the target named is Aurora kinase B (Homo sapiens, UniProt Q96GD4). It is filed as functional.
Assay [23] deals with Cyclin-dependent kinase 7 (Homo sapiens, UniProt P50613). It is filed as functional.
Chain of Cyclin-dependent kinase 7 (P50613 whole entry): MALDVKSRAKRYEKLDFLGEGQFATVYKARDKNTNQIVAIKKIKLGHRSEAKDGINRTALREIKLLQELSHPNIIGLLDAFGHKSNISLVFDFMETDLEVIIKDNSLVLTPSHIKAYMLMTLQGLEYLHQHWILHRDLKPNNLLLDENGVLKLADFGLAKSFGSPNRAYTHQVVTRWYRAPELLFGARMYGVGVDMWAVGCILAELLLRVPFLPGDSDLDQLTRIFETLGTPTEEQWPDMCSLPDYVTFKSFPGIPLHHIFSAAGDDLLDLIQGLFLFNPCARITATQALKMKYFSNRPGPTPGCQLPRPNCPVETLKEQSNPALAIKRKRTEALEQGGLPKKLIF
Assay [24] concerns the target Dual specificity protein kinase CLK4 (Homo sapiens, UniProt Q9HAZ1). It is filed as functional.
The target in assay [25] is Dual specificity tyrosine-phosphorylation-regulated kinase 1A (Homo sapiens, UniProt Q13627). It is filed as functional.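 Also: measured against DYRK1A as one member of a broad kinome profiling panel.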
The target of assay [26] is Calcium/calmodulin-dependent protein kinase type II subunit alpha (Homo sapiens, UniProt Q9UQM7). As to the kind of experiment: Navigating the Kinome. Panel member name: CAMK2A. It is filed as functional.
In assay [27] the target is Mitogen-activated protein kinase 14 (Homo sapiens, UniProt Q16539). It is filed as functional.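 Also: part of a kinome-wide panel, MAPK14 entry.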
The test system of assay [28] is Streptococcus sp. 'group A'. As to the kind of experiment: Streptococcus pyogenes SK(-)GAS viability under kanamycin – luminescence, BacTiterGlo, confirmation, counter-screen for streptokinase expression inhibitor project, dose response (AID 1900). It is filed as functional, organism-based.
Assay [29] is described as follows: Trypanosoma cruzi growth suppression in host cells – NIH3T3 host cells, beta-gal luminescence, confirmation (AID 2044).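 Also: intracellular parasites grown in NIH/3T3 mouse fibroblasts as host cells; luminescent beta-galactosidase reporter signal from transgenic T. cruzi replicating inside host cells; inhibitors lower the luminescence signal.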 It is filed as functional, cell-based.
Assay [30] in a line: NIH3T3 cell viability loss – ATP luminescence, mouse fibroblasts, counter-screen, dose response (AID 2010).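 Also: cells exposed to compound for about 90 hours before reading.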 It is filed as functional, cell-based.
For assay [31], the system named is Streptococcus. Put plainly: GAS UMAA2166 growth inhibition – luminescence, BacTiterGlo, counter-screen for streptokinase expression inhibitor project, dose response (AID 1915).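 Also: potency for reduction of bacterial viability or growth.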 It is filed as functional, organism-based.
Assay [32] deals with 26S proteasome non-ATPase regulatory subunit 14 (Homo sapiens, UniProt O00487). Put plainly: inhibition of proteasome subunit RPN11 – biochemical, fluorescence polarization, uHTS hits, confirmation (AID 602368). It is filed as functional. A general note: Polarisation of emitted light reports the rotation of a fluorescent probe.
For assay [33], the target named is 72 kDa type IV collagenase (Homo sapiens, UniProt P08253). Put plainly: Dose Response validation of uHTS RPN11 inhibitor hits using a MMP-2 Fluorescence assay. It is filed as functional.
Chain of 72 kDa type IV collagenase (P08253 whole entry): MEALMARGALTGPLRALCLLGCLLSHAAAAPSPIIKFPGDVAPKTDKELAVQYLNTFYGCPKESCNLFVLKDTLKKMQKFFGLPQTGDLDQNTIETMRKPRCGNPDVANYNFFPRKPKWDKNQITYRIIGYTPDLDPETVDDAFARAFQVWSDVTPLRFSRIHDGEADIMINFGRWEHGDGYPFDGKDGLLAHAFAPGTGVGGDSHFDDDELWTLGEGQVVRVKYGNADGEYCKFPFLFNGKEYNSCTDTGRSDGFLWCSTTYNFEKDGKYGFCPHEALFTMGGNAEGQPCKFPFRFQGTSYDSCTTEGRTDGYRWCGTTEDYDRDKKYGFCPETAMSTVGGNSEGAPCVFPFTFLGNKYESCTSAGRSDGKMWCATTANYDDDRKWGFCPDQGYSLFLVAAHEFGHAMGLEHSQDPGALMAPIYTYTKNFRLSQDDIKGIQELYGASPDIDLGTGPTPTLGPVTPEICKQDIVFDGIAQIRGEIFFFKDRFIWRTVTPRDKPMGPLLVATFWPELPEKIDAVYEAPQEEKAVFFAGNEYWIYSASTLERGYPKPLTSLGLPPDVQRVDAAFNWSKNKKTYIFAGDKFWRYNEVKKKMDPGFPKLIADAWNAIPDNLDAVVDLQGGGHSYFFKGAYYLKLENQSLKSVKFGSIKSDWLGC
In assay [34] the target is Prothrombin (Bos taurus, UniProt P00735). As to the kind of experiment: thrombin protease inhibitors – biochemical, fluorescence polarization, uHTS hits, dose response (AID 602369). It is filed as functional.
In assay [35] the target is T5, DNA dC->dU-editing enzyme APOBEC-3A. As to the kind of experiment: SAR analysis of small molecule inhibitors of APOBEC3A DNA Deaminase via a fluorescence-based single-stranded DNA deaminase assay - Set 2. Particulars: read-out: IC50_Mean. It is filed as functional.
Assay [36] has as its target T4, DNA dC->dU-editing enzyme APOBEC-3G. Put plainly: SAR analysis of small molecule inhibitors of APOBEC3G DNA Deaminase via a fluorescence-based single-stranded DNA deaminase assay - Set 2. It is filed as functional. Conditions: read-out: IC50_Mean.

T4 sequence (Q9HC16 whole entry): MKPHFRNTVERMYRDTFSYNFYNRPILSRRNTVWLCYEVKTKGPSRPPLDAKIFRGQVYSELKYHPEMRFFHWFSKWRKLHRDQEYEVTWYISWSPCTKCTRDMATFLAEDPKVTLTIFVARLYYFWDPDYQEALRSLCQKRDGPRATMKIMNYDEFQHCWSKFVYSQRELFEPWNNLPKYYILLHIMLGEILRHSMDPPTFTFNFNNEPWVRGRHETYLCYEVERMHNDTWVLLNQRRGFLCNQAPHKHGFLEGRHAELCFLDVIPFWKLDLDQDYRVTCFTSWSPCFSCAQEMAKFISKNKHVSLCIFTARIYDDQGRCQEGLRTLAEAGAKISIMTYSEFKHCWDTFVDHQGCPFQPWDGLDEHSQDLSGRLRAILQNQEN
Chain of Serine/threonine-protein kinase PAK 4 (O96013 whole entry): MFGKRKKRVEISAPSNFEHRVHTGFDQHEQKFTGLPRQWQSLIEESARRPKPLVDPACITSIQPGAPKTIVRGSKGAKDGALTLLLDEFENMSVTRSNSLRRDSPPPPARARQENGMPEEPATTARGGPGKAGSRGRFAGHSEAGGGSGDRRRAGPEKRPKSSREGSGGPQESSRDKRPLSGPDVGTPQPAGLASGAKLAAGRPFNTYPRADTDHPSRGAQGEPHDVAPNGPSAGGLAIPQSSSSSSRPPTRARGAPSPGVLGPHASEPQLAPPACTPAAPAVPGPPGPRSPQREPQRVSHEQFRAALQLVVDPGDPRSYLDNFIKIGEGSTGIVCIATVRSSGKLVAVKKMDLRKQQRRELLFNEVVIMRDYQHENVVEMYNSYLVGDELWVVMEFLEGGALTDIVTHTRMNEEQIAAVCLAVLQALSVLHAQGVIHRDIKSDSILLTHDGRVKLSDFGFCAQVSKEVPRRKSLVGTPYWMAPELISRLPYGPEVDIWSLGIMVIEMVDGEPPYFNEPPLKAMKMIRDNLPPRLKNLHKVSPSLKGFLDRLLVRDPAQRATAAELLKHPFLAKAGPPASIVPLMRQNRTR
Chain of Fibroblast growth factor receptor 1 (P11362 whole entry, canonical isoform): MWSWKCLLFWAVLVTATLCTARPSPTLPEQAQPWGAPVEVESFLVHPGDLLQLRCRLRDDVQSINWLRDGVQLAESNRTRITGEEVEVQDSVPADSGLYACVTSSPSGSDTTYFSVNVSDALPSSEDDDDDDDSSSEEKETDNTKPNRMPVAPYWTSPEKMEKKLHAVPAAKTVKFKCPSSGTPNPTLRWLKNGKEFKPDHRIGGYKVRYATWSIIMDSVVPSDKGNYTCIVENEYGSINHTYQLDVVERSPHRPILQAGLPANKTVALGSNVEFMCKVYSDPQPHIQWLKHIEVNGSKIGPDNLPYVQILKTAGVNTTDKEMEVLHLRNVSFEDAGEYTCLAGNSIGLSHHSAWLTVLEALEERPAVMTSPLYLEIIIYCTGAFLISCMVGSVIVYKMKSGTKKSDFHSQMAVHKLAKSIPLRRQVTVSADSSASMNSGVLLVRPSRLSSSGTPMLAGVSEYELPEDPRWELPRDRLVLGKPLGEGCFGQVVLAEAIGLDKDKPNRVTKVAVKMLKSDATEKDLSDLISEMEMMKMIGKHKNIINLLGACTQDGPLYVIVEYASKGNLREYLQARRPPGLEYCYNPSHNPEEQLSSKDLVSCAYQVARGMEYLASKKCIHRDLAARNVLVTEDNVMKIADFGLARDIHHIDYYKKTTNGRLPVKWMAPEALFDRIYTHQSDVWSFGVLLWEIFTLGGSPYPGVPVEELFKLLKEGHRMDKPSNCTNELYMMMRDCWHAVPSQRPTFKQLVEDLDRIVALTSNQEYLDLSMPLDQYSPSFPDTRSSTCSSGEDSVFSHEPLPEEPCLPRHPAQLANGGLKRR
Chain of Activin receptor type-1 (Q04771 whole entry): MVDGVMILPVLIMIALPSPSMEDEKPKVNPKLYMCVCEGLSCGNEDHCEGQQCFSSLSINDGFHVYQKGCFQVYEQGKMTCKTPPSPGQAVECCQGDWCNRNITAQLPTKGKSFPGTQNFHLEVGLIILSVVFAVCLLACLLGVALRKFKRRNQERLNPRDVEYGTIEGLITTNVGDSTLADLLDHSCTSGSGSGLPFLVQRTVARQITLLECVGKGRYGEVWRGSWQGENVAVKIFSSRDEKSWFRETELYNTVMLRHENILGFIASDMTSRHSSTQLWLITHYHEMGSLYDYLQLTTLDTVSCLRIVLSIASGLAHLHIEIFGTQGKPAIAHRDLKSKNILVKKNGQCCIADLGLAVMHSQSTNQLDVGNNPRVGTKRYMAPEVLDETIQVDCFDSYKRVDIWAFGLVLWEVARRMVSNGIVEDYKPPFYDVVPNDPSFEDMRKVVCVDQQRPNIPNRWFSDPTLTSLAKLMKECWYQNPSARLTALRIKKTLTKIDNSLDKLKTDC

For the molecule `COc1ccc(C)cc1Nc1n[n+](-c2ccccc2)c(-c2ccc(SC)cc2)s1`, the EC50 in assay [1] is 15.5 µM (active).
Consider `c1ccc(-c2nc(NCCCn3ccnc3)c3ccccc3n2)cc1`, for which the IC50 in [2] is 20.1 µM (active); in [5] it was 39 µM (inactive); in assay [6], 13.9 µM (active). Also, the results for the concentration at half-maximal activity (AC50) in [3] and in assay [4] were 11.2 µM (active) and 8.78 µM (active), respectively.
Regarding `CC(C)c1cc(C(=O)N(C2CCCCC2)C2CCCCC2)no1`, the EC50 in assay [7] and in assay [8] was > 50 µM (inactive) in each case.
Take `Cc1c(CNCc2cccc(Br)c2)c(C(=O)O)c(C)n1Cc1ccc(F)cc1`: the IC50 in assay [9] and in [10] was > 99 µM (inactive) throughout.
Regarding `Nc1ncnc2nc3ccccc3n12`, the inhibition constant (Ki) in assay [11] was 39.8 µM (active); in assay [12], > 79.4 µM (inactive); in [13], > 79.4 µM (inactive); in assay [14] it was > 100 µM (inactive); in assay [15], > 79.4 µM (inactive); in assay [16] it was 20 µM (active). For the same molecule, the Ki is > 100 µM (inactive) in [17]; 63.1 µM (active) in [18]; > 79.4 µM (inactive) in assay [19]; > 79.4 µM (inactive) in [20]; 20 µM (active) in assay [21]; > 79.4 µM (inactive) in assay [22]. Moreover, the Ki was > 79.4 µM (inactive) in [23]; 7.94 µM (active) in assay [24]; 39.8 µM (active) in assay [25]; > 79.4 µM (inactive) in assay [26]; > 79.4 µM (inactive) in assay [27].
Turning to `COc1ccc2oc(C(=O)Nc3nc(-c4ccccn4)cs3)c(C)c2c1`, the EC50 is 0.915 µM (active) in [28], 1.22 µM (active) in [29], 18.9 µM (active) in assay [30] and 1.52 µM (active) in assay [31]. For the same molecule, the figures for the IC50 in assay [32], in assay [33] and in assay [34] were 34.1 µM (active), > 100 µM (inactive) and 69.4 µM (active), respectively.
Consider `CCc1nc2sc3c(c2c2nnc(SC)n12)CCC(C)C3` (stereo unspecified), for which the IC50 in [35] and in assay [36] was > 99 µM (inactive) throughout.
